Laboratory results as given in patent publication US6589973B1, “Preparation of selective cyclooxygenase II inhibitors” (THEMIS Medicare Ltd., priority 2002, dated 2003).

How the values were obtained:
[1] = background statement; cited from earlier work
[2] = test system: Hot Plate Analgesometer in rats; assay: Central analgesic activity, hot plate (55° C) in rats; parameters: species or system Albino rats; details: rat, in vivo

| Compound | solubility in water (in words) [1] | other results |
| --- | --- | --- |
| Cc1ccc(-c2cc(C(F)(F)F)nn2-c2ccc(S(N)(=O)=O)cc2)cc1 [Celecoxib] | poorly soluble in water | – |
| COc1ccc(-c2cc(C(F)F)nn2-c2ccc(S(N)(=O)=O)cc2)cc1F [Deracoxib] | poorly soluble in water | – |
| CC(C)=CCN1CCC2(C)c3cc(O)ccc3CC1C2C (centres unmarked) [Pentazocin] | – | % Increase in Reaction Time (IRT) [2]: 92.85%; Basal Reaction Time (BRT) [2]: 6.33 ± 0.41 s; Latent Reaction Time (LRT) [2]: 11.66 ± 1.60 s |
| CS(=O)(=O)c1ccc(C2=C(c3ccccc3)C(=O)OC2)cc1 [Rofecoxib] | poorly soluble in water | – |
| Cc1onc(-c2ccccc2)c1-c1ccc(S(N)(=O)=O)cc1 [Valdecoxib] | poorly soluble in water | – |
| Itacoxib | poorly soluble in water | – |
